Data on 17 compounds can be found in PubChem BioAssay AID456 (Sanford-Burnham Center for Chemical Genomics, 2006).

This assay deals with HUVEC TNFa-induced VCAM-1 surface expression, immunofluorescence imaging. Put plainly: suppression of endothelial VCAM-1 upregulation – imaging, high-content imaging, pooled HUVEC, TNFa stimulus (AID 456).
With `Cc1nc2sccn2c(=O)c1CCN1CCC(=C(c2ccccc2)c2ccc(F)cc2)CC1`, the IC50 was 11.5 µM.
The value for `O=C(Cn1nc(-c2ccc(Cl)cc2)ccc1=O)NCCCN1CCN(Cc2ccccc2)CC1` was 16.9 µM.
Consider `CS(=O)(=O)c1ncc(Cl)c(C(=O)Nc2ccc(N3CCOCC3)cc2)n1`, for which the IC50 is 6.5 µM.
The value for `Cc1oc(-c2cccc(Cl)c2)nc1CN1CCC(C(=O)N2CCN(c3ccccc3F)CC2)CC1` was 8.7 µM.
Take `CN(C)CCCN1c2ccccc2CCc2ccc(Cl)cc21`: the IC50 is 10.2 µM.
With `Oc1ccc(Nc2nc(-c3ccc(O)cc3)cs2)cc1`, the IC50 was 11.6 µM.
With `N#Cc1cc2sc3nnc(-c4ccncc4)n3c2cc1C#N` the figure was 13.7 µM; with `CC(C)C[C@H]1C(=O)N2CCC[C@H]2[C@]2(O)O[C@](NC(=O)[C@@H]3C=C4c5cccc6[nH]c(Br)c(c56)CC4N(C)C3)(C(C)C)C(=O)N12` (some centres not stated), 11 µM.
For the compound `O=S1(=O)C=C(Sc2nc3ccccc3s2)c2ccccc21`, the IC50 was 2.35 µM.
With `C=CS(=O)(=O)c1ccc(Oc2ccc(S(=O)(=O)C=C)cc2)cc1` the figure was 1.2 µM.
The value for `O=C1CCn2nc(-c3ccc(Cl)cc3)cc2N1` was 12.3 µM.
The value for `C/C=C(\CS(=O)(=O)c1ccccc1)S(=O)(=O)c1ccccc1` was 6.39 µM.
With `Clc1ccc(OCc2nnc(SCCN3CCCCC3)n2Cc2ccco2)cc1`, the IC50 was 13.9 µM.
The value for `CN(C)CCCN1c2ccccc2Sc2ccc(Cl)cc21` was 8.47 µM; that for `S=C(NCC1CCCO1)n1nnc2ccccc21` (configuration not stated) was 8.83 µM.
`CCOC(=O)c1ccc(N=c2sc(C(=O)OC)cc(=O)n2Cc2ccco2)cc1`: the IC50 is 4.92 µM.
The value for `CCN1C(=O)c2cccc3c(NC(=O)c4ccc(S(=O)(=O)N(C)C)cc4)ccc1c23` was 12.1 µM.

As usually defined, the IC50 is the concentration that gives 50% inhibition.
